Results reported in PubChem BioAssay (NCI).
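Each compound was tested at five concentrations against cells in 96-well plates for 48 hours. TGI denotes the concentration required for complete inhibition of growth.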

Experiments:
Assay in all cases: NCI anticancer screen, dose series, 48 h
SK-OV-3 ovarian = test system: SK-OV-3 ovarian
HCT-15 colon = test system: HCT-15 colon
SR leukemia = test system: SR leukemia
COLO 205 colon = test system: COLO 205 colon
SN12C renal = test system: SN12C renal
EKVX NSCLC = test system: EKVX NSCLC
HCC-2998 colon = test system: HCC-2998 colon
MOLT-4 leukemia = test system: MOLT-4 leukemia
SNB-75 CNS = test system: SNB-75 CNS
SF-539 CNS = test system: SF-539 CNS

## COC12C=CC(CC1)C(C)(C)C2OS(C)(=O)=O (stereo not given)
SK-OV-3 ovarian
  TGI: > 100 µM
HCT-15 colon
  TGI: > 100 µM
SR leukemia
  TGI: > 100 µM
COLO 205 colon
  TGI: > 100 µM
SN12C renal
  TGI: > 100 µM
EKVX NSCLC
  TGI: > 100 µM
HCC-2998 colon
  TGI: > 100 µM
MOLT-4 leukemia
  TGI: > 100 µM
SNB-75 CNS
  TGI: > 100 µM
SF-539 CNS
  TGI: > 100 µM

## Nc1ccccc1OCCCOc1ccccc1N
SK-OV-3 ovarian
  TGI: > 100 µM
HCT-15 colon
  TGI: > 100 µM
SR leukemia
  TGI: > 100 µM
COLO 205 colon
  TGI: > 100 µM
SN12C renal
  TGI: > 100 µM
EKVX NSCLC
  TGI: > 100 µM
HCC-2998 colon
  TGI: > 100 µM
MOLT-4 leukemia
  TGI: > 100 µM
SNB-75 CNS
  TGI: > 100 µM
SF-539 CNS
  TGI: > 100 µM

## CCN(CC)C1Oc2cc3c(cc2C(c2cccc(OC)c2O)C1C)OCO3 (stereo not given)
SK-OV-3 ovarian
  TGI: > 61.3 µM
HCT-15 colon
  TGI: > 53.2 µM
SR leukemia
  TGI: 25.3 µM
COLO 205 colon
  TGI: 13.6 µM
SN12C renal
  TGI: 16.4 µM
EKVX NSCLC
  TGI: 62.3 µM
HCC-2998 colon
  TGI: > 46.7 µM
MOLT-4 leukemia
  TGI: 28 µM
SNB-75 CNS
  TGI: 23.1 µM
SF-539 CNS
  TGI: 6.3 µM

## CC(=O)N1C(Nc2cccc3nc(C)ccc23)CCN1c1ccccc1 (stereo not given)
SK-OV-3 ovarian
  TGI: > 10 µM
HCT-15 colon
  TGI: > 10 µM
SR leukemia
  TGI: > 10 µM
COLO 205 colon
  TGI: > 10 µM
SN12C renal
  TGI: > 10 µM
EKVX NSCLC
  TGI: > 10 µM
HCC-2998 colon
  TGI: > 10 µM
MOLT-4 leukemia
  TGI: > 10 µM
SNB-75 CNS
  TGI: > 10 µM
SF-539 CNS
  TGI: > 10 µM

## COc1ccc(C2=C(Cl)c3cc(OC)c(OC)cc3C2)cc1OC
SK-OV-3 ovarian
  TGI: > 100 µM
HCT-15 colon
  TGI: > 100 µM
SR leukemia
  TGI: > 100 µM
COLO 205 colon
  TGI: > 100 µM
SN12C renal
  TGI: > 100 µM
EKVX NSCLC
  TGI: > 100 µM
HCC-2998 colon
  TGI: > 100 µM
MOLT-4 leukemia
  TGI: > 100 µM
SNB-75 CNS
  TGI: > 100 µM
SF-539 CNS
  TGI: > 100 µM

## O=c1c2cc(I)ccc2nc(SCc2nnco2)n1Cc1ccccc1
SK-OV-3 ovarian
  TGI: > 100 µM
HCT-15 colon
  TGI: > 100 µM
SR leukemia
  TGI: > 100 µM
COLO 205 colon
  TGI: > 100 µM
SN12C renal
  TGI: > 100 µM
EKVX NSCLC
  TGI: > 100 µM
HCC-2998 colon
  TGI: > 100 µM
MOLT-4 leukemia
  TGI: 47.4 µM
SNB-75 CNS
  TGI: > 100 µM
SF-539 CNS
  TGI: > 100 µM

## CC1C(C#N)(C#N)C(C#N)=C(N)C1(C)[N+](=O)[O-] (stereo not given)
SK-OV-3 ovarian
  TGI: > 100 µM
HCT-15 colon
  TGI: > 100 µM
SR leukemia
  TGI: > 100 µM
COLO 205 colon
  TGI: > 100 µM
SN12C renal
  TGI: > 100 µM
EKVX NSCLC
  TGI: 42.6 µM
HCC-2998 colon
  TGI: > 100 µM
MOLT-4 leukemia
  TGI: > 100 µM
SNB-75 CNS
  TGI: > 100 µM
SF-539 CNS
  TGI: > 100 µM

## CC(=O)c1[nH]c(Nc2ccc(C)cc2)c(C(=S)Nc2ccccc2)c1N
SK-OV-3 ovarian
  TGI: > 100 µM
HCT-15 colon
  TGI: 46.1 µM
SR leukemia
  TGI: > 100 µM
COLO 205 colon
  TGI: > 100 µM
SN12C renal
  TGI: 35 µM
EKVX NSCLC
  TGI: 96.7 µM
HCC-2998 colon
  TGI: 56.5 µM
MOLT-4 leukemia
  TGI: > 100 µM
SNB-75 CNS
  TGI: 50.3 µM
SF-539 CNS
  TGI: > 100 µM
